Assay results published in patent publication EP2666766A1, “Novel E,E-diene compounds and their use as medicaments and cosmetics” (Dr. August Wolff GmbH & Co. KG Arzneimittel, priority 2012, dated 2013).

These compounds were tested on Arachidonoylethanolamide Transport (AEAT) (assay: Cellular uptake of [3H]-AEA (inhibition of AEA transport)). Details: Homo sapiens, U-937, 0.25 h; U937 cells; 100 nM AEA, 15 min, 37°C.
Assay type: cell-based
Experimental: C. Cellular uptake of [^3H]-AEA
Human lymphoma U937 cells were grown in RPMI 1640 medium (Invitrogen, Basel, Switzerland) supplemented with 10% fetal bovine serum, […] fungizone (amphotericin B), 100 units/ml penicillin, 100 µg/ml streptomycin, and 2 mM L-glutamine (all from Invitrogen) and selected for the cellular AEA uptake assay. 2.5 x 10^6 cells were collected and suspended in 250 µL of RPMI 1640 medium (Invitrogen, Basel, Switzerland) at 37°C using glass silanized vials. Cells were pre-incubated 15 min at 37°C in presence of test compounds in a concentration range of 10^-11 - 10^-5 M or in presence of the same amount (5 µl) of vehicle control (DMSO). Then a mixture of 0.5 nM [^3H]-AEA (60 Ci/mmol) (American Radiolabeled Chemicals, Inc., San Louis, MO, US) and 99.5 nM of nonradioactive AEA (Tocris Cookson Ltd., Bristol, UK) resulting in a final concentration of 100 nM AEA was added and samples were incubated at 37°C for another 15 minutes. The reaction was stopped by rapid filtration over UniFilter®-96 GF/C (Perkin Elmer, Boston MA, US) pre-soaked with PBS 0.25 % BSA (w/v). Cells were washed three times with ice-cold PBS buffer containing 1% fatty acid free BSA (137 mM NaCl, 2.7 mM KCl, 10 mM Na2HPO4, 1.76 mM KH2PO4, 1% BSA fatty acid free, pH 7.4), dried and 40 µL MicroScint 20 scintillation cocktail (Perkin Elmer, Waltham, MA, US) was added. Radioactivity was measured using a Perkin Elmer 1450 Microbeta TRILUX liquid scintillation counter. Results were expressed as % of AEA uptake versus cells treated with solvent and the EC50 and IC50 values were calculated from the sigmoidal curves, which were generated using the GraphPad Prism 5.0 (GraphPad Software, San Diego, CA, US). Table 2: Inhibition of Arachidonoylethanolamide Transport (AEAT) (Determination as Described in Biological Assays C)

EC50 [nM] | SMILES
6 | CCCCCOC/C=C/C=C/CNC(=O)NCCc1ccc(O)c(O)c1 [Example 3]
3 | CCCCOCC/C=C/C=C/CNC(=O)OCc1cc(C(=O)OCC)no1 [Example 9]
6 | CCCCOCC/C=C/C=C/CNC(=O)OCc1cc(C(=O)N(C)C)no1 [Example 12]
0.573 | CCCCOCC/C=C/C=C/CNC(=O)OCc1cc(C(=O)NC)no1 [Example 13]
286 | CCCCOCC/C=C/C=C/CN(C)C(=O)OCc1cc(C(=O)OCC)no1 [Example 14]
70 | CCCCOCC/C=C/C=C/CN(C)C(=O)OCc1cc(C(N)=O)no1 [Example 15]
7 | CCCCOCC/C=C/C=C/CN(C)C(=O)OCc1cc(C(=O)NC)no1 [Example 16]
81 | CCCCOCC/C=C/C=C/CN(C)C(=O)OCc1cc(C(=O)N(C)C)no1 [Example 17]
9 | CCCCOCC/C=C/C=C/CNC(=O)OCc1cc(C(N)=O)no1 [Example 18]

SMILES | EC50 [nM]
CCCCCOC/C=C/C=C/CNC(=O)OCc1ccncc1 [Example 1] | 147
